Results as given in the NIST ThermoML archive (doi:10.1016/j.fluid.2007.06.012).

Conditions: Liquid, Closed cell (Static) method

FC(F)(F)C(F)(F)F [hexafluoroethane]
Conditions	vapor or sublimation pressure [kPa]
243.33 K	769
245.32 K	816
249.31 K	928
253.29 K	1048
257.31 K	1183
261.29 K	1328
265.28 K	1489
269.27 K	1659
273.27 K	1847
277.24 K	2050
281.23 K	2270
283.23 K	2387
285.23 K	2509
287.22 K	2636
289.22 K	2769
290.23 K	2839
290.72 K	2873
291.22 K	2909
291.72 K	2946
292.22 K	2982
